Laboratory results taken from PMC6321019 (International Journal of Molecular Sciences, 2018).
Structures can show the parent of a compound that is named as a salt.

Key:
[1] = molecular target: T1, hemagglutinin (HA)-tagged wild-type human histamine H1 receptor (HA-WT) (Homo sapiens, UniProt P35367); assay: [3H]mepyramine displacement binding to membranes of CHO cells expressing HA-WT; details: van 't Hoff plots (37, 25, 14 °C); ∆Hº vs -T∆Sº
T1 construct: membrane preparations

[2] = molecular target: T2, HA-tagged Lys191 mutant of human histamine H1 receptor to alanine (HA-K191A) (Homo sapiens, UniProt P35367, K191A); assay: [3H]mepyramine displacement binding to membranes of CHO cells expressing HA-K191A; details: HA-K191A vs HA-WT; for reduction of affinity by mutation of Lys191 to alanine (times): 25 °C; for Change in Entropy-Dependent Hydrophobic Binding Forces by the mutation of Lys191 to alanine: -T∆Sº from van 't Hoff plots (37, 25, 14 °C); for Change in Enthalpy-Dependent Electrostatic Binding Forces by the mutation of Lys191 to alanine: ∆Hº from van 't Hoff plots (37, 25, 14 °C)
T2 construct: expressed in transfected cells; host or cells: CHO cells; membrane preparations
T2 sequence (P35367 whole entry K191A): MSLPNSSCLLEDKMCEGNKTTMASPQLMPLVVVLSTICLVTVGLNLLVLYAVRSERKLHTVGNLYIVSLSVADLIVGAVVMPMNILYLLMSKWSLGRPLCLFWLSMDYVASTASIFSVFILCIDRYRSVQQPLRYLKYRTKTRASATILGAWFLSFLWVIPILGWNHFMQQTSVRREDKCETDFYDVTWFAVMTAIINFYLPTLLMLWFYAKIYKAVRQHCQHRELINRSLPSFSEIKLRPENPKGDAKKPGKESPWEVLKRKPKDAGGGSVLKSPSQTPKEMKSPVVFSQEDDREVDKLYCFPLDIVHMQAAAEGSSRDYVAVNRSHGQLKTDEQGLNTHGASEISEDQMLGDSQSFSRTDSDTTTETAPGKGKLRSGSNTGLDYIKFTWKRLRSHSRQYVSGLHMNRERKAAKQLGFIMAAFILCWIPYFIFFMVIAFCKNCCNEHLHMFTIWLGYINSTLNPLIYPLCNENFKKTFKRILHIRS

T1 sequence (P35367 whole entry): as the sequence (P35367 whole entry K191A) above, with A191K counted along it

Structure (SMILES)	thermodynamic driving force of binding (source of negative ∆Gº) to HA-WT [1]	reduction of affinity by mutation of Lys191 to alanine (times) [2]	Change in Binding Affinity by the mutation of Lys191 to alanine [2]	Change in Entropy-Dependent Hydrophobic Binding Forces by the mutation of Lys191 to alanine [2]	enthalpy-dependent electrostatic binding forces, change by mutation of Lys191 to alanine (in words) ([2]; van 't Hoff plots)	entropy-dependent hydrophobic binding forces, change by mutation of Lys191 to alanine (in words) ([2]; van 't Hoff plots)	Change in Enthalpy-Dependent Electrostatic Binding Forces by the mutation of Lys191 to alanine [2]
O=C(O)COCCN1CCN([C@H](c2ccccc2)c2ccc(Cl)cc2)CC1 [levocetirizine, Levocetirizine dihydrochloride]	caused by both enthalpy (∆Hº) and entropy (-T∆Sº)	approximately 3.6 times	↓**	↓*	significantly increased	significantly reduced	↑*
O=C(O)COCCN1CCN([C@@H](c2ccccc2)c2ccc(Cl)cc2)CC1 [(S)-cetirizine, (S)-cetirizine dihydrochloride]	predominantly achieved by enthalpy (∆Hº)	~6.2 times	↓**	↑**	significantly reduced	–	↓**
